Measured values as given in PMC9262797, “Spectrum and characterization of bi-allelic variants in MMAB causing cblB-type methylmalonic aciduria” (Human Genetics, 2021).

T1: MMAB (recombinant human MMAB, amino acids 56–250) (Homo sapiens, UniProt Q96EY8)
T1 construct: N-terminally truncated residues 56-250, mitochondrial leader omitted; homotrimer, native mass 78 kDa by SEC
T1 sequence (Q96EY8 56-250): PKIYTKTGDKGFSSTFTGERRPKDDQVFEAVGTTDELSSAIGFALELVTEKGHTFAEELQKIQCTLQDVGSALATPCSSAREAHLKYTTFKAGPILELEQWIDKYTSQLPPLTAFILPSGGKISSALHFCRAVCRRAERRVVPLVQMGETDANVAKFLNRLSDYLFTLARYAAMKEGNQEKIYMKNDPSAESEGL


Experiments:
[1] = target: T1, MMAB (recombinant human MMAB, amino acids 56–250); experiment: isothermal titration calorimetry; assay type: binding
[2] = target: T1, MMAB (recombinant human MMAB, amino acids 56–250); experiment: fluorescence titration (MMAB into […] MANT-ATP, ex […] / em […] nm); assay type: binding
[3] = target: the molecule itself; experiment: SEC; analytical gel filtration, Superose 6 Increase 10/300 GL, Buffer A (100 mM HEPES pH 7.5, 300 mM KCl, 250 µM MgCl2, 5% glycerol); 100 µl of protein at 25 µM; calibrated with 29, 150 and 443 kDa standards

Row | Molecule | stoichiometry N [3] | further results
1 | Nc1ncnc2c1ncn2[C@@H]1O[C@H](COP(=O)(O)OP(=O)(O)OP(=O)(O)O)[C@@H](O)[C@H]1O [ATP] |  | Kd [1]: 14.2 ± 0.6 µM
2 | CNc1ccccc1C(=O)O[C@H]1[C@@H](O)[C@H](n2cnc3c(N)ncnc32)O[C@@H]1CO[P@@](=O)(O)O[P@](=O)(O)OP(=O)(O)O [MANT-ATP, 2',3'-O-(N-Methyl-anthraniloyl)-adenosine-5'-triphosphate] |  | Kd [2]: 21.1 ± 3.4 µM
3 | human methylmalonyl-CoA mutase (MMUT) (enzyme, UniProt P22033 33-750, looked up, methylmalonyl-CoA mutase (MMUT), human, recombinant; also called apo-MMUT; holo-MMUT; source: recombinant, produced as previously described (Plessl et al. 2017), purified) LHQQQPLHPEWAALAKKQLKGKNPEDLIWHTPEGISIKPLYSKRDTMDLPEELPGVKPFTRGPYPTMYTFRPWTIRQYAGFSTVEESNKFYKDNIKAGQQGLSVAFDLATHRGYDSDNPRVRGDVGMAGVAIDTVEDTKILFDGIPLEKMSVSMTMNGAVIPVLANFIVTGEEQGVPKEKLTGTIQNDILKEFMVRNTYIFPPEPSMKIIADIFEYTAKHMPKFNSISISGYHMQEAGADAILELAYTLADGLEYSRTGLQAGLTIDEFAPRLSFFWGIGMNFYMEIAKMRAGRRLWAHLIEKMFQPKNSKSLLLRAHCQTSGWSLTEQDPYNNIVRTAIEAMAAVFGGTQSLHTNSFDEALGLPTVKSARIARNTQIIIQEESGIPKVADPWGGSYMMECLTNDVYDAALKLINEIEEMGGMAKAVAEGIPKLRIEECAARRQARIDSGSEVIVGVNKYQLEKEDAVEVLAIDNTSVRNRQIEKLKKIKSSRDQALAERCLAALTECAASGDGNILALAVDASRARCTVGEITDALKKVFGEHKANDRMVSGAYRQEFGESKEITSAIKRVHKFMEREGRRPRLLVAKMGQDGHDRGAKVIATGFADLGFDVDIGPLFQTPREVAQQAVDADVHAVGISTLAAGHKTLVPELIKELNSLGRPDILVMCGGVIPPQDYEFLFEVGVSNVFGPGTRIPKAAVQVLDDIEKCLEKKQQSV | 2 | 
4 | human ATP:cob(I)alamin adenosyltransferase (MMAB), amino acids 56-250 (enzyme, UniProt Q96EY8 56-250, looked up, ATP:cob(I)alamin adenosyltransferase (MMAB), human, N-terminally truncated, amino acids 56-250; same residues as in the human MMAB structure of Campanello et al. 2018; also called ATP:cobalamin adenosyltransferase; apo-MMAB; source: recombinant, produced as previously described (Plessl et al. 2017), purified) PKIYTKTGDKGFSSTFTGERRPKDDQVFEAVGTTDELSSAIGFALELVTEKGHTFAEELQKIQCTLQDVGSALATPCSSAREAHLKYTTFKAGPILELEQWIDKYTSQLPPLTAFILPSGGKISSALHFCRAVCRRAERRVVPLVQMGETDANVAKFLNRLSDYLFTLARYAAMKEGNQEKIYMKNDPSAESEGL | 3 | 
